Measurements published in patent US8377909B2, “Use of phytate as agent inhibiting dissolution of crystals of calcium salts for the prevention of osteoporosis” (Universitat de les Illes Balears, priority 2006, dated 2013).

How the values were obtained:
[1] = Adsorption of phytate on hydroxyapatite crystals; format: physicochemical; conditions: TRIS buffer pH 7.4, stirred 8 hours
Procedure: Three homogenous suspensions of crystallised calcium phosphate in the form of hydroxyapatite in TRIS buffer at pH 7.4 were prepared. These suspensions were stirred for 8 hours in the presence of 1, 3 and 12 uM of phytate, respectively. Later, the suspensions were filtered and the amount of phytate adsorbed on the hydroxyapatite crystals was determined by difference between the initial and final phytate in the solution at pH 7.4.

[2] = Dissolution of hydroxyapatite previously treated with phytate at pH 7.4; format: physicochemical; conditions: 1, 6 and 12 uM phytate fixed at pH 7.4 stage; dissolution at pH 5.0 acetate buffer over 24 hours; FIG. 1
Procedure: FIG. 1 is a graph showing the quantity of calcium dissolved on treating hydroxyapatite, which has been previously treated with various concentrations of phytate at pH 7.4, for a period of 24 hours.
(§1) A homogenous suspension of crystalline calcium phosphate in the form of hydroxyapatite in TRIS buffer at pH 7.4 was prepared. This suspension was stirred for 8 hours. Then the crystals obtained were filtered and dried to constant weight. Then these crystals were resuspended at pH 5.0 (in acetate buffer) and the kinetics of dissolution of the salt was determined over 24 hours, continuously stirring the system. The kinetics were followed by determining the quantity of dissolved calcium and phosphorus by atomic emission spectroscopy (using inductively coupled plasma).
This experiment was repeated using concentrations of 1, 6 and 12 uM of phytate during the stage at pH 7.4 with the aim of fixing this compound on the hydroxyapatite structure.

[3] = Dissolution of hydroxyapatite in the presence of phytate at pH 5; format: physicochemical; conditions: 12 and 24 uM phytate present in pH 5 stage; over 24 hours; FIG. 2
Procedure: FIG. 2 is a graph showing the quantity of calcium dissolved on treating hydroxyapatite for a period of 24 hours in the presence of various concentrations of phytate at pH5.
as §1
This experiment was repeated using concentrations of 12 and 24 uM of phytate in the pH 5 stage with the aim of studying the inhibitory effect of dissolution by phytate present in the solution.

[4] = Effect of phytate consumption on bone mass, axial densitometry; format: in vivo; conditions: overall conclusion of the densitometry study
Procedure: A study was carried out evaluating the effect of phytate consumption on the level of bone mass measured by axial densitometry and peripheral heel densitometry. In total, 433 axial densitometer measurements and 1473 peripheral heel densitometer measurements were made. The consumption of phytate by all subjects was evaluated by using a dietetic questionnaire. Subjects were classified into 4 groups (group 1, group 2, group 3 and group 4) according to increasing levels of phytate consumption.

O=P(O)(O)O[C@H]1[C@H](OP(=O)(O)O)[C@@H](OP(=O)(O)O)[C@H](OP(=O)(O)O)[C@@H](OP(=O)(O)O)[C@H]1OP(=O)(O)O [phytate, myo-inositol hexaphosphate]
phytate present in the solution remained fixed to the calcium phosphate structure (hydroxyapatite) ([1]; 1 uM phytate): 62%
phytate present in the solution remained fixed to the calcium phosphate structure (hydroxyapatite) ([1]; 3 uM phytate): 66%
phytate present in the solution remained fixed to the calcium phosphate structure (hydroxyapatite) ([1]; 12 uM phytate): 56%
inhibition of dissolution of hydroxyapatite (dissolved calcium) [2]: capable of inhibiting the dissolution of the salt
inhibition of dissolution of hydroxyapatite (dissolved calcium) [3]: capable of inhibiting the dissolution of the salt
effect of consumption of a diet rich in phytate on bone mass [4]: higher bone mass
